Measurements from patent EP0319986B1, “Anti-plasmin depressant” (NIPPON SHINYAKU COMPANY, LIMITED, priority 1987, dated 1989).

Experiments:
α2-PI = α2-PI activity in plasma of Beagle dogs after consecutive intravenous administration (S-2251); type: in vivo; details: 30 mg/kg intravenous, consecutive 7 days, activity prior to administration = 100%, n=3
Description: Three (3) male Beagle dogs were used for the control group and the administered group, respectively, as animals to be administered.
A test sample (Compound No. 2) was dissolved in a concentration of […] 0.1 ml, using 0.1 M phosphage buffer (pH 7.2). After dissolution, the solution was sterilized by filtration through a sterile filter (pore size, 0.2 µm) and then 0.3 ml of the solution was administered per 1 kg of body weight (30 mg/kg). The administration was made through the right front limb vein for consecutive 7 days. Collected blood was mixed with 3.8% sodium citrate in a ratio of 1 : 9 by volume. By centrifugation at 3000 rpm for 15 minutes, plasma was isolated.
The α2-PI activity was measured as an inhibition activity against decomposition of plasmin with the synthetic chromogenic substrate S-2251. The results of measurement are shown as change in inhibition activity after administration based on 100% of the plasmin inhibition activity prior to administration of the test sample (Table 2). The sample number in each group was 3 samples.
The α2-PI activity was obviously depressed by consecutive administration of the test compound in a dose of 30 mg/kg.

fibrin clot = assay: Lysis by urokinase of 125I-fibrin clots formed from plasma of treated Beagle dogs; type: in vivo; details: plasma 4 Days After Administration of 30 mg/kg once a day, 37°C, 12 hours, n=3
Description: A test sample (Compound No. 2) was consecutively administered to Beagle dogs in a dose of 30 mg/kg once a day. Plasma was isolated prior to and 4 days after the administration. The α2-PI activity in plasma was measured and at the same time, fibrin clot was formed in vitro using the plasma. When urokinase as a thrombolytic agent was acted on the fibrin clot, a degree of lysis was compared between plasma prior to the administration and plasma 4 days after the administration.
To 300 µl of the isolated plasma, 40 µl of ^125I-fibrinogen (0.1 mci/ml) was added and 50 µl each of the mixture was dispensed in a test tube. 5 µl each of a solution mixture of 25 U/ml thrombin and 0.5 M calcium chloride was added to each test tube, which was incubated at 37°C for 30 minutes to prepare fibrin clots. Solutions of 15 and 30 U/ml of urokinase in 2% albumin solution and the resulting solution ware charged in each test tube by 1 ml each.
After incubating at 37°C for 12 hours, 25 µl of the supernatant was collected in an RAI tube and ^125I-fibrin decomposition products isolated in the supernatant were measured with a γ-counter. The sample number was 3 in each group.

[1] = system: CPAE (calf pulmonary artery endothelia); assay: Thrombolytic test in vitro: CPAE culture supernatant on fibrin plate, lysis circle; type: cell-based; details: 5 µl of 0.2 mg/ml compound solution per well of CPAE cells, 72 hours; 5 µl supernatant on fibrin plate with plasminogen, 4 hours; 4 mm or more = thrombolytic ability induced
Description: Thrombolytic activity-inducing ability in the established vascular endothelial cell culture system was examined using CPAE (calf pulmonary artery endothelia).
[…] cells were purchased from Dainippon Pharmaceutical Co., Ltd., Department of Laboratory Products. CPAE cells were subcultured in 10% FCS-Eagle MEM medium charged in a culture flask of 25 cm^2. From the cell suspension fractionated upon subculture, 0.1 ml was transferred into a test tube with a sterilized pipette. Then, the cell suspension was diluted to 10 fold with 0.9 ml of Trypan Blue solution and a cell count was counted with a cell counter. After diluting with 10% FCS-Eagle MEM medium so as to have a cell count of 2 x 10^5 cells/ml, 100 µl each/well, namely, 2 x 10^4 cells/well, of the dilution was dispensed in a 96 well microtiter plate (manufactured by Corning) with a micropipette. The plate was incubated at 37°C in 5% CO2.
The compound used according to the present invention was dissolved in medium in 0.2 mg/ml; the compound that was insoluble in the medium was dissolved in less than 1% of DMSO and the resulting solution was aseptically filtered through a filter; 5 µl of the solution was added to the well with a sterilized micropipette 24 hours after onset of the incubation. After culturing at 37°C for 72 hours in 5% CO2, the collected culture supernatant was provided for measurement.
The measurement was performed as follows. Plasminogen, 5 µl, was charged in a well of fibrin plate (manufactured by Kitazato institute), which was allowed to stand until diffusion was completed. After diffusion, 5 µl of the supernatant was charged and then put in a carbon dioxide gas incubator of 37°C. Four hours after, evaluation was made by formation of a transparent lysis circle by fibrinolysis.
In the case of forming a circle of 4 mm or more due to fibrinolysis, it was judged that thrombolytic ability of CPAE cells was induced.
After the fibrinolytic activity was checked over, the well was fixed with 2.5% of glutaraldehyde in a final concentration. Then, the solution was discarded and the system was washed with PBS. After washing, moisture was removed. After staining with 100 µl of 0.1% crystal violet and allowing stand for 2 to 3 minutes, the system was washed with running water. After an excess of the staining solution was washed out, moisture was removed and the dye bound to the cells was eluted by 100 µl of methanol. Using multiscanning (Titertech), measurements were performed at a wavelength of 580 nm in accordance with the ABS method and the matrix method to confirm that the cells were not injured.

[2] = system: urokinase type plasminogen activator; assay: Fibrin autography of CPAE culture solution after SDS-polyacrylamide gel electrophoresis; type: cell-based, calf; details: culture solution of CPAE cells added with compound; lysis at the position of molecular weight of urokinase type plasminogen activator
Text: It has been clarified that the compounds used according to the present invention are capable of inducing fibrinolytic activity in CPAE cells. In order to verify by what substance in addition to the α2-PI lowering activity, this fibrinolytic activity is induced, analysis was made on the culture solution added with Compound No. 2 out of the compounds used according to the present invention, by means of fibrin autography.
By SDS-polyacrylamide gel using 10% gel, this culture solution and t-PA (tissue plasminogen activator) and urokinase were subjected to electrophoresis. After the electrophoresis, the gel was treated with 2.5% Triton X-100, which was inoculated on agar plate added with fibrinogen, thrombin and plasminogen. A place of fibrin which caused lysis was confirmed in an incubator of 37°C in 5% CO2.

in vivo = details: mouse
Description: Four (4) ddY strain male mice of 6 week age were used for each group of the test sample.
In intravenous administration, each sample was dissolved in 0.9% physiological saline and the solution was administered through the tail vein. In intraperitoneal administration, each sample was suspended in 0.5% CMC-physiological saline and 0.1 ml of the suspension per […] of mouse body weight was intraperitoneally administered. In oral administration, each sample was suspended in 0.5% CMC-physiological saline and 0.2 ml of the suspension per […] administered.
Observation was made immediately after the administration. After observation for 1 week after the administration, the mice was sacrificed with chloroform and subjected to autopsy.

## CN1C[C@H](O)[C@@H](O)[C@H](O)[C@H]1CO [Compound No. 2, N-methylmoranoline]
α2-PI; Day 1
  α2-PI activity (%): 95%
α2-PI; Day 2
  α2-PI activity (%): 83%
α2-PI; Day 3
  α2-PI activity (%): 84%
α2-PI; Day 4
  α2-PI activity (%): 76%
α2-PI; Day 5
  α2-PI activity (%): 75%
α2-PI; Day 6
  α2-PI activity (%): 86%
α2-PI; Day 7
  α2-PI activity (%): 89%
Fibrin clot; Urokinase Activity 0 U
  Rate of Lysis of Fibrin Clot (%): 21.5%
Fibrin clot; Urokinase Activity 15 U
  Rate of Lysis of Fibrin Clot (%): 63.8%
Fibrin clot; Urokinase Activity 30 U
  Rate of Lysis of Fibrin Clot (%): 93.7%
[1]
  Diameter (mm) of the circle due to fibrinolysis: 7.9 mm
[2]
  Induction of urokinase type plasminogen activator in CPAE (fibrin autography): strongly induced production of urokinase type plasminogen activator
In vivo; ip
  LD50 at 168 h: 10000 mg/kg
In vivo; iv
  LD50 at 168 h: 5090 mg/kg
In vivo; po
  LD50 at 168 h: 10000 mg/kg
